Measurements taken from US9796733B2, “Imidazo-pyrazine derivatives useful as soluble guanylate cyclase activators” (Merck Sharp & Dohme Corp., priority 2014, dated 2017).

Target: T1, sGC α1/β1 heterodimer (Homo sapiens, UniProt Q02108+Q02153)
T1 construct: expressed in transfected cells; host or cells: CHO-K1 (clone #7, CHO-K1/sGC)
T1 sequence (Q02108 1-690): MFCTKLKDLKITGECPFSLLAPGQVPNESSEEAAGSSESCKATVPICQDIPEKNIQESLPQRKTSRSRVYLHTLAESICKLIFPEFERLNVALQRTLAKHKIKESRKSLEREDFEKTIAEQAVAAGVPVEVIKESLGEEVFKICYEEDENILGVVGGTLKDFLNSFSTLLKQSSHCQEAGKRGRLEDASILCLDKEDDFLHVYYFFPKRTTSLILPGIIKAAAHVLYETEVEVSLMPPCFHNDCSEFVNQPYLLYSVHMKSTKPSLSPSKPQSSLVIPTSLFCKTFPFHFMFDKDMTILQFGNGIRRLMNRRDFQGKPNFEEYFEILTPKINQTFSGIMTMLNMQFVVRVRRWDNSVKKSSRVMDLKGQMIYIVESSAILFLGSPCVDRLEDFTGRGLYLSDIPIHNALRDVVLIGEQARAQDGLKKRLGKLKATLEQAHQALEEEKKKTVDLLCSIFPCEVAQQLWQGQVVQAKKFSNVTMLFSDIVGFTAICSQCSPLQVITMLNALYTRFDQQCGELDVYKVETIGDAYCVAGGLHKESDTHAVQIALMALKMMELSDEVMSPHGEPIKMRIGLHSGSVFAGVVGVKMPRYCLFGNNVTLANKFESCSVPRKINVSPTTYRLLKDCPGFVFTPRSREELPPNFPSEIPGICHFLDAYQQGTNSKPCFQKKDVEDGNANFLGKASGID
T1 sequence (Q02153 1-619): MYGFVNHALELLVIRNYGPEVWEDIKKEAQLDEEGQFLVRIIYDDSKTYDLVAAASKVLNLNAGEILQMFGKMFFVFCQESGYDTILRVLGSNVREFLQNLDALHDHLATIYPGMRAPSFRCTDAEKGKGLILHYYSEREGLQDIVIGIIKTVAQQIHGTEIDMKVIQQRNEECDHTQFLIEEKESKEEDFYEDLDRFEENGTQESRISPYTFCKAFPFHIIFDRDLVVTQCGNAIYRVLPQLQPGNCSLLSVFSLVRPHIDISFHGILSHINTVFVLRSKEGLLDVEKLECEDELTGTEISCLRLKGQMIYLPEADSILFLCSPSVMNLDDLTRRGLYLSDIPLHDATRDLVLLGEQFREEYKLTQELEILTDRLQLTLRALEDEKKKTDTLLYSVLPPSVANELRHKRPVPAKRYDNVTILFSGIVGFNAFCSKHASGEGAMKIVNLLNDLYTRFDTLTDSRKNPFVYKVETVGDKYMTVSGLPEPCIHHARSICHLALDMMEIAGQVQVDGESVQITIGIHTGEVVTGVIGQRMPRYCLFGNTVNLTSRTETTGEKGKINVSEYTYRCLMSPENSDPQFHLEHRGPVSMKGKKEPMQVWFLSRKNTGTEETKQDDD
Experiment: Cell-based sGC functional assay (CASA assay): cGMP generation in CHO-K1/sGC cells, HTRF detection
Conditions: for Emax: CHO-K1, percent activation relative to standard Compound A in CHO-K1/sGC cells, read-out: % Act.; for EC50: inflection point (IP) of cGMP generation in CHO-K1/sGC cells, 4P fit, activity expressed as percentage of Compound A; for % Act.: percent activation relative to standard Compound A in CHO-K1/sGC cells
Summary of the method: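 cGMP was quantified by HTRF after 1 hr, 37° C exposure of thawed CHO-K1 cells expressing sGC α1/β1 to compound, with or without 1 μM DETA-NO. IBMX (0.5 mM) blocked cGMP breakdown, and DMSO was 2.5% final. Percent of standard Compound A's maximal cGMP was fitted (4P) for inflection point.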

| SMILES | Emax [%] | EC50 [nM] | % Act. [%] |
| --- | --- | --- | --- |
| COCCNc1nc(-c2cn3ccnc3c(CCC(F)(F)C(F)(F)F)n2)nc2c1C(C)(c1ccc(F)cc1)C(=O)N2 (centres unmarked) [Example 309A, 5-(4-fluorophenyl)-4-((2-methoxyethyl)amino)-5-methyl-2-(8-(3,3,4,4,4-pentafluorobutyl)imidazo[1,2-a]pyrazin-6-yl)-5H-pyrrolo[2,3-d]pyrimidin-6(7H)-one] | 97 | 39 | – |
| COc1ccc(C2(C3CC3)C(=O)Nc3nc(-c4cn5ccnc5c(CCC(F)(F)C(F)(F)F)n4)nc(N)c32)cn1 (centres unmarked) [Example 343A, 4-amino-5-cyclopropyl-5-(6-methoxypyridin-3-yl)-2-(8-(3,3,4,4,4-pentafluorobutyl)imidazo[1,2-a]pyrazin-6-yl)-5H-pyrrolo[2,3-d]pyrimidin-6(7H)-one] | 121 | 46 | – |
| CC1(c2ccc(Cl)cn2)C(=O)Nc2nc(-c3cn4c(N)cnc4c(CCC(F)(F)C(F)(F)F)n3)nc(N)c21 (centres unmarked) [Example 269A, 4-amino-2-(3-amino-8-(3,3,4,4,4-pentafluorobutyl)imidazo[1,2-a]pyrazin-6-yl)-5-(5-chloropyridin-2-yl)-5-methyl-5H-pyrrolo[2,3-d]pyrimidin-6(7H)-one] | 198 | 5090 | – |
| CC1(c2ccc(Cl)cc2)C(=O)Nc2nc(-c3cn4ccnc4cn3)nc(N3CC(F)(C4CC4)C3)c21 (centres unmarked) [Example 281A, 5-(4-chlorophenyl)-4-(3-cyclopropyl-3-fluoroazetidin-1-yl)-2-(imidazo[1,2-a]pyrazin-6-yl)-5-methyl-5H-pyrrolo[2,3-d]pyrimidin-6(7H)-one] | 120 | 102 | – |
| Cc1cc(Cl)cnc1C1(C2CC2)C(=O)Nc2nc(-c3cn4ccnc4c(CCCC(F)(F)F)n3)nc(N)c21 (single isomer, unassigned) [Example 364A, 4-amino-5-(5-chloro-3-methylpyridin-2-yl)-5-cyclopropyl-2-(8-(4,4,4-trifluorobutyl)imidazo[1,2-a]pyrazin-6-yl)-5H-pyrrolo[2,3-d]pyrimidin-6(7H)-one] | 138 | 273 | – |
| Nc1nc(-c2cn3ccnc3c(CCC(F)(F)C(F)(F)F)n2)nc2c1C(C(=O)NC1CC1)(C1CC1)C(=O)N2 (single isomer, unassigned) [Example 61B, 4-amino-N,5-dicyclopropyl-6-oxo-2-(8-(3,3,4,4,4-pentafluorobutyl)imidazo[1,2-a]pyrazin-6-yl)-6,7-dihydro-5H-pyrrolo[2,3-d]pyrimidine-5-carboxamide] | – | 450 | 83 |

Other lines, results leading:

| Emax [%] | EC50 [nM] | % Act. [%] | SMILES |
| --- | --- | --- | --- |
| 145 | 56 | – | CC(C)(C)CCc1nc(-c2nc(N)c3c(n2)NC(=O)C3(C)c2ccc(F)cc2)cn2ccnc12 (centres unmarked) [Example 121A, 4-amino-2-(8-(3,3-dimethylbutyl)imidazo[1,2-a]pyrazin-6-yl)-5-(4-fluorophenyl)-5-methyl-5H-pyrrolo[2,3-d]pyrimidin-6(7H)-one] |
| 122 | 26 | – | COc1ccc(C2(C)C(=O)Nc3nc(-c4cn5ccnc5c(CCC(F)(F)C(F)(F)F)n4)nc(N)c32)cc1 (centres unmarked) [Example 229B, 4-amino-5-(4-methoxyphenyl)-5-methyl-2-(8-(3,3,4,4,4-pentafluorobutyl)imidazo [1,2-a]pyrazin-6-yl)-5H-pyrrolo[2,3-d]pyrimidin-6(7H)-one] |
| – | 140 | 129 | CC1(c2ccc(F)cc2)C(=O)Nc2nc(-c3cn4ccnc4c(Cc4cccc(F)c4)n3)nc(N)c21 (single isomer, unassigned) [Example 90B, 4-amino-2-(8-(3-fluorobenzyl)imidazo[1,2-a]pyrazin-6-yl)-5-(4-fluorophenyl)-5-methyl-5H-pyrrolo[2,3-d]pyrimidin-6(7H)-one] |
| 108 | 164 | – | CC(C)Cc1nc(-c2nc(N)c3c(n2)NC(=O)C3(C)c2ccc(C(F)(F)F)cc2)cn2ccnc12 (centres unmarked) [Example 128B, 4-amino-2-(8-isobutylimidazo[1,2-a]pyrazin-6-yl)-5-methyl-5-(4-(trifluoromethyl)phenyl)-5H-pyrrolo[2,3-d]pyrimidin-6(7H)-one] |
